The values below come from ChEMBL document CHEMBL1201862, “PubChem BioAssay data set” (2004).

What all share (test): DTP human tumour cell line panel, 48 h
The test system of assay [1] is DU-145.
Assay [2] deals with UACC-257.
The test system of assay [3] is HCT-116.
The test system of assay [4] is HCT-15.
The test system of assay [5] is RXF 393.
Assay [6] concerns CAKI-1.
Assay [7] deals with NCI-H23.
Assay [8] concerns HT-29.
In assay [9] the test system is OVCAR-3.
Assay [10] deals with MDA-MB-231.
Assay [11] deals with LOX IMVI.
Assay [12] deals with OVCAR-5.
Assay [13] deals with OVCAR-4.
The test system of assay [14] is SW-620.
Assay [15] deals with SNB-75.
The test system of assay [16] is HOP-62.
Assay [17] deals with UO-31.
The test system of assay [18] is MDA-MB-435.
Assay [19] concerns EKVX.
In assay [20] the test system is NCI/ADR-RES.

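Grown in 96-well plates, cells were treated for 48 hours with each compound at five concentrations. Insufficient inhibition: endpoint recorded as highest concentration tested. The concentration for 50% growth inhibition is given as GI50.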 Active and inactive are the calls of the source. Cut-off read from the data, not from the text of the source: active = GI50 up to about 1.1 µM and inactive = higher.

As to `Cc1ccc2ccccc2c1CSc1nc(N)nc2c1ncn2CC(C)C`, the GI50 (as a rule, the concentration that inhibits growth by half) in assay [1] is 82.4 µM (inactive); in assay [2], 11.7 µM (inactive); in [3], 9.82 µM (inactive); in assay [4] it was 10.9 µM; in assay [5] it was 10.7 µM (inactive); in [6], 17 µM (inactive). Also, the GI50 is 24.4 µM (inactive) in [7]; 9.14 µM (inactive) in assay [8]; 14.4 µM (inactive) in [9]; > 30.9 µM (inactive) in [10]; 34.8 µM (inactive) in assay [11]; 96.2 µM (inactive) in assay [12]. In addition, the GI50 in assay [13] was 11.1 µM (inactive); in assay [14] it was 24.7 µM (inactive); in assay [15], 43.3 µM (inactive); in assay [16], 28.9 µM (inactive); in assay [17] it was 2.79 µM (inactive); in assay [18], 10.3 µM (inactive). Besides, the figures for the GI50 in [19] and in [20] were 13.6 µM (inactive) and 21.8 µM (inactive), respectively.
Turning to `C[C@@H]1CC[C@@]2(NC1)O[C@H]1C[C@H]3[C@@H]4CC[C@H]5C[C@@H](O)CC[C@]5(C)[C@H]4CC[C@]3(C)[C@H]1[C@@H]2C`, the GI50 in assay [1] was > 100 µM (inactive); in assay [2] it was > 100 µM (inactive); in assay [3], 45.5 µM (inactive); in assay [4], 36.9 µM; in [5] it was > 100 µM (inactive); in [6] it was > 100 µM (inactive). The GI50 in assay [7] was 77.3 µM (inactive); in [8], 57.4 µM (inactive); in assay [9] it was 61.7 µM (inactive); in assay [10], 38.1 µM (inactive); in assay [11] it was 32.7 µM (inactive); in [12] it was > 100 µM (inactive). Moreover, the GI50 in [13] was 26.8 µM (inactive); in [14] it was 88.9 µM (inactive); in assay [15] it was 61.9 µM (inactive); in [16], 64.4 µM (inactive); in assay [17] it was 42.3 µM (inactive); in [18] it was > 100 µM (inactive). Further, the GI50 is > 100 µM (inactive) in assay [19] and 30.8 µM (inactive) in assay [20].
Regarding `CC(=O)OC[C@@H]1[C@H]2CC[C@]3(C)[C@@H](OC(C)=O)CC[C@H]3[C@@H]2CC[C@H]1C1(C)SCCS1`, the GI50 in [1] was > 25 µM (inactive); in [2] it was > 25 µM (inactive); in assay [3], > 25 µM (inactive); in assay [4], > 25 µM; in assay [5] it was > 25 µM (inactive); in assay [6], > 25 µM (inactive). Besides, the GI50 in [7], in assay [8], in [9], in assay [10], in [11] and in assay [12] was > 25 µM (inactive) in each case. The GI50 in assay [13], in assay [14], in [15], in assay [16], in assay [17] and in [18] was > 25 µM (inactive) throughout. For the same compound, the GI50 in assay [19] and in assay [20] was > 25 µM (inactive) throughout.
On to `COc1ccc(/C=C(\C(=C/c2ccc(OC)cc2)[N+](=O)[O-])[N+](=O)[O-])cc1`, for which the GI50 in [1] was 12.1 µM (inactive); in [2], 5.22 µM (inactive); in assay [3] it was 10.2 µM (inactive); in assay [4] it was 2.55 µM; in assay [5] it was 1.54 µM (inactive); in assay [6], 3.18 µM (inactive). The GI50 is 4.46 µM (inactive) in assay [7]; 3.39 µM (inactive) in assay [8]; 12.8 µM (inactive) in [9]; 2.07 µM (inactive) in [10]; 2.05 µM (inactive) in [11]; 10.3 µM (inactive) in assay [12]. For the same compound, the GI50 in assay [13] is 12.8 µM (inactive); in [14] it was 2.52 µM (inactive); in assay [15], 26.1 µM (inactive); in assay [16] it was 5.47 µM (inactive); in assay [17], 4.53 µM (inactive); in assay [18], 3.4 µM (inactive). For the same compound, the GI50 is 8.71 µM (inactive) in assay [19] and 1.93 µM (inactive) in [20].
Consider `CCOC(=O)C1=NN(c2ccc([N+](=O)[O-])cc2)[C@@]2(C)C[C@]3(c4ccccc4)N(c4ccc([N+](=O)[O-])cc4)N=C(C(=O)OCC)N3c3ccccc3N12`, for which the GI50 was > 100 µM (inactive) in assay [1]; > 100 µM (inactive) in assay [2]; > 100 µM (inactive) in assay [3]; > 100 µM in [4]; > 100 µM (inactive) in [5]; > 100 µM (inactive) in [6]. The GI50 is > 100 µM (inactive) in [7]; > 100 µM (inactive) in assay [8]; > 100 µM (inactive) in [9]; 4.51 µM (inactive) in assay [10]; > 100 µM (inactive) in [11]; > 100 µM (inactive) in assay [12]. Besides, the GI50 in [13], in assay [14], in assay [15], in assay [16], in assay [17] and in assay [18] was > 100 µM (inactive) in each case. For the same compound, the GI50 in assay [19] and in [20] was > 100 µM (inactive) throughout.
Take `Cc1ccccc1N/N=C1\C(=O)Nc2ccccc21`: the GI50 in assay [1] is > 100 µM (inactive); in [2], > 100 µM (inactive); in [3] it was > 100 µM (inactive); in [4], > 100 µM; in assay [5] it was > 100 µM (inactive); in assay [6], > 100 µM (inactive). Moreover, the GI50 in [7], in [8], in [9], in assay [10], in [11] and in [12] was > 100 µM (inactive) throughout. Also, the GI50 in assay [13], in assay [14], in [15], in assay [16], in assay [17] and in [18] was > 100 µM (inactive) throughout. Also, the GI50 in assay [19] and in [20] was > 100 µM (inactive) in each case.
For `COc1ccc2c(c1)nc1n2C(c2c(F)cccc2F)SC1` (stereo not given), the GI50 in assay [1] was > 100 µM (inactive); in [2] it was 45.7 µM (inactive); in [3], 31.5 µM (inactive); in assay [4], 35.2 µM; in assay [5], 53.7 µM (inactive); in [6], > 100 µM (inactive). The GI50 is 29 µM (inactive) in assay [7]; 47.3 µM (inactive) in [8]; 62.8 µM (inactive) in [9]; > 100 µM (inactive) in assay [10]; 45.6 µM (inactive) in assay [11]; > 100 µM (inactive) in assay [12]. Moreover, the GI50 in [13] was > 100 µM (inactive); in assay [14], 60.5 µM (inactive); in assay [15] it was 39.3 µM (inactive); in assay [16] it was 76.4 µM (inactive); in assay [17], 56 µM (inactive); in [18] it was 26.2 µM (inactive). In addition, the GI50 in assay [19] was 36.1 µM (inactive); in assay [20] it was 38.2 µM (inactive).
For `COC1=CC(=O)c2c(O)c3c(c(O)c2C1=O)CC(C)(O)OC3` (stereo not given) [FUSARUBIN], the GI50 in assay [1] was 3.97 µM (inactive); in [2], 2.02 µM (inactive); in assay [3], 2.96 µM (inactive); in assay [4], 1.58 µM; in assay [5] it was 4.17 µM (inactive); in [6], 3.73 µM (inactive). Moreover, the GI50 is 2.28 µM (inactive) in [7]; 2.12 µM (inactive) in assay [8]; 0.906 µM (active) in assay [9]; 2.84 µM (inactive) in assay [10]; 2.59 µM (inactive) in assay [11]; 4.46 µM (inactive) in assay [12]. Also, the GI50 in assay [13] is 1.4 µM (inactive); in assay [14], 3.75 µM (inactive); in assay [15], 16.1 µM (inactive); in [16], 3.19 µM (inactive); in assay [17], 3.97 µM (inactive); in assay [18], 1.65 µM (inactive). Besides, the GI50 in assay [19] is 5.32 µM (inactive); in [20], 2.56 µM (inactive).
